From patent publication US10292991B2, “Small molecule therapeutic compounds that reduce the incidence of intracerebral hemorrhage and brain microhemorrhages” (St. Michaels Hospital, priority 2016, dated 2019)

How the values were obtained:
[1] = system: Hmgcrb - splice morpholino-induced hemorrhage in zebrafish; test: Hmgcrb morpholino-induced hemorrhage in zebrafish, rescue by drugs; assay type: in vivo, zebrafish (Danio rerio); details: Danio rerio; Table 6
Protocol: (§1) Danieau buffer (58 mM NaCl, 0.7 mM KCl, 0.4 mM MgSO4, 0.6 mM Ca(NO3)2, 5.0 mM HEPES, pH 7.6) was used to dilute the MO solutions to 0.2 mM final concentration. Individual wells were placed on a 1.0% agarose plate, in which the embryos were positioned. Afterwards, the MO solution was injected through the cell yolk into embryos of 1 to 4 cell-stage. The injected quantities varied from 0.5 to 15 ng.
The first three morpholino pairs were good for the efficacy study. Efficacy assays were performed using Artemether (ARM, Sigma) and artemesunate (ART, GMP). […] Treating these morphants with the drugs rescued the ICH phenotype.

[2] = system: Pak2a - exon8 morpholino-induced hemorrhage in zebrafish; test: Pak2a morpholino-induced hemorrhage in zebrafish, rescue by drugs; assay type: in vivo, zebrafish (Danio rerio); details: Danio rerio; Table 6
Protocol: as §1
Another MO was designed to block the splice-donor sites after exon 8 in pak2a. Pak2a is the gene mutated in the rhdmi149 zebrafish mutant that develops ICH/BMH.
Efficacy assays were performed using Artemether (ARM, Sigma) and artemesunate (ART, GMP).

[3] = system: ICH induced by anti-β3 integrin serum in neonatal mice; test: Anti-β3 integrin mouse model of intracerebral hemorrhage; assay type: in vivo, β3+/− mice (neonates)
From the text: An anti-β3 integrin model of intracerebral hemorrhage (ICH) was generated according to our previously reported methods (Yougbare I, Lang S, Yang H et al. Maternal anti-platelet beta3 integrins impair angiogenesis and cause intracranial hemorrhage. J Clin Invest 2015; 125:1545-1556). Briefly, serum containing anti-β3 antibodies was generated by immunizing β3−/− female mice with gel-filtered wild type platelets via tail-vein injections twice a week. To detect anti-β3 antibody, blood was collected from the saphenous vein of immunized female mice and left to clot. […]
For the integrin ICH model, brains were taken out of the skull, cut at the mid-coronal position and assessed in a binary manner for whether or not there was any evidence of ICH. […]
Brains were scanned using 7T Burker MRI with 16-channel solenoid coils. […] Following the reconstruction of images and applying image distortion correction algorithms, all brains were processed and analyzed for total volume of brain and total volume of hemorrhage. Quantification was done using percentage of bleeding (normalized to each brain size). […] Lastly, quantification was done in a blinded fashion. All quantifications and 3D reconstructions were performed using a combination of Display and Amira processing software.

`CO[C@H]1O[C@@H]2O[C@@]3(C)CC[C@H]4[C@H](C)CC[C@@H]([C@H]1C)[C@@]24OO3` [Artemether] gave an EC50 [1] of 62.5 ± 8.3 nM, an EC50 [2] of 39.1 ± 8 nM and an ICH incidence ([3]; 25 mg/kg i.p. with anti-β3 sera at P2, n=24, model control 77%) of 47%. The “Total volume of ICH (MRI)” value ([3]; preliminary data, data not shown, vs controls) was “reduced”.
